Assay results reported in patent US20040092438A1, “Gd3-synthesis inhibitors for treating neuropathological disorders” (priority 1999, published 2004).

Key:
focal cerebral ischemia = conditions: single i.p. 100 mg/kg with piperonyl butoxide; p <0.007
Experimental: (§3) This was done by pushing a siliconized nylon suture through the common carotid artery as far as the MCA and stopping the blood flow through the MCA. After 90 min, the thread was withdrawn and thus the blood circulation was restored. The animals were under deep anesthesia (ketamine and Rompun; each 150 mg/kg of bodyweight) and the rectal temperature was maintained at about 37° C. with heat lamps and a heated cushion throughout the operation. After an observation period of 24 hours, the animals were again anesthetized, and the brains were dissected after perfusion.
The stained sections were scanned directly (MCID-M4,3.0; Imaging Res. Inc.). […] The significance was determined by the Mann-Whitney test. […] Averaging took place with the Scion-Image b 3.b.

[1] = tested on: GD3 levels in the ischemic hemisphere; experiment: GD3 levels in brain after MCA occlusion (thin-layer chromatography); type: in vivo, mice (C57BL6 strain); conditions: single i.p. 100 mg/kg with piperonyl butoxide 400 mg/kg, 15 min after MCA occlusion; 90-minute occlusion, 24-hour reperfusion
Experimental: as §3
Thus, tissues and cells were disrupted by two freeze-thaw cycles. The polar lipids were extracted, and the gangliosides were chromatographed on silica gel plates 60 for high performance thin-layer chromatography (HPTLC) (Merck, Darmstadt, Germany), dried and visualized with resorcinol. […] For the immunostaining, the plates were coated with 0.5% poly(isobutyl methacrylate) in hexane, dried, incubated with the monoclonal antibody R24 (IgG3) directed against GD3 for 1 h, and read via the immunoperoxidase stain. The bands were then scanned and analyzed by densitometry using the AIDA-1000/1B image analyzer (Raytest Isotopenmessgerate, Straubenhardt, Germany).

primary neurons [2] = experiment: Oxygen/glucose deficiency in vitro, specific death of primary neurons; type: cell-based, mouse; conditions: 80 nM added 48 h before 6-hour oxygen/glucose deficiency, then reperfusion; relative to ST8-Sc-treated neurons
Experimental: Neurons were obtained from transgenic mice whose acid sphingomyelinase had been inactivated (ASM^−/−; Hirunouchi, K., et al., Nature Genetics 10, 288-294 (1995)) and wild-type mice of the same generation (ASM^+/+). Primary neuron cultures were prepared from 15- to 17-day mouse fetuses as previously described by Dawson, T. M., et al, Ann. neurol. 30, 843-6 (1991). […] The cells were applied to polyornithine-coated 24-well plates (Sigma, Deisenhofen, Germany). After 4 days, the cells were treated with cytosine arabinoside (5 μM) for a further four days in order to inhibit the proliferation of non-neural cells. The cell cultures were then kept at 8% CO2 and 37° C. in MEM, 10% horse serum, 25 mM glucose and 2 mM L-glutamine in a humidity incubator. The neurons were allowed to mature in culture for at least 8 days before being used for the experiment. The proportion of glial cells in the culture was determined using an antibody directed against glial fibrillary acidic protein (GFAP) to be less than 10%. […]
(§1) The percentage of dead cells was determined by trypan blue exclusion and expressed as percentage of the specific death. This was calculated as follows:
(§2) % specific death=(detected death−spontaneous death)/(100−spontaneous death)×100

GD3 synthase = experiment: GD3 levels in neurons after oxygen/glucose deficiency and reperfusion (thin-layer chromatography); type: cell-based, mouse; conditions: 80 nM added 48 h before 6-hour oxygen/glucose deficiency, 24-hour reperfusion; relative to ST8-Sc-treated neurons
Experimental: The procedure for generating a combined oxygen/glucose deficiency was known per se (Kaku, D. A., et al., Brain Res. 554:344-7; Monyer, H. et al., Neuron 8, 967-73 (1992); with slight modifications). The culture medium was replaced by MEM, 1% horse serum and 2 mM L-glutamine. The cultures were kept in an anaerobic chamber which contained a gas mixture comprising […], 85% N2 and 5% CO2, at 37° C. and 100% humidity for 6 h. The oxygen/glucose deficiency was abolished by removing the cultures from the chamber and adding horse serum and glucose to a final concentration of 10% and 25 mM respectively. The cultures were then replaced in a humidity incubator containing 8% CO2 and atmospheric oxygen for a further 3 h, 18 h or 24 h. […]
GD3 was determined as previously described by De Maria, R., et al., Science 277, 1652-5 (1997). […] For the immunostaining, the plates were coated with 0.5% poly(isobutyl methacrylate) in hexane, dried, incubated with the monoclonal antibody R24 (IgG3) directed against GD3 for 1 h, and read via the immunoperoxidase stain. The bands were then scanned and analyzed by densitometry using the AIDA-1000/1B image analyzer (Raytest Isotopenmessgerate, Straubenhardt, Germany).

primary neurons [3] = experiment: Neuronal death after addition of gangliosides to cortical neuron cultures; type: cell-based, mouse; conditions: 24 h after addition of 500 μM (highest dose) to cortical neuronal cells
Experimental: Neurons were obtained from transgenic mice whose acid sphingomyelinase had been inactivated (ASM^−/−; Hirunouchi, K., et al., Nature Genetics 10, 288-294 (1995)) and wild-type mice of the same generation (ASM^+/+). Primary neuron cultures were prepared from 15- to 17-day mouse fetuses as previously described by Dawson, T. M., et al, Ann. neurol. 30, 843-6 (1991). […] The cells were applied to polyornithine-coated 24-well plates (Sigma, Deisenhofen, Germany). After 4 days, the cells were treated with cytosine arabinoside (5 μM) for a further four days in order to inhibit the proliferation of non-neural cells. The cell cultures were then kept at 8% CO2 and 37° C. in MEM, 10% horse serum, 25 mM glucose and 2 mM L-glutamine in a humidity incubator. The neurons were allowed to mature in culture for at least 8 days before being used for the experiment. The proportion of glial cells in the culture was determined using an antibody directed against glial fibrillary acidic protein (GFAP) to be less than 10%.
as §1, §2
Cortical neuronal cells were treated with increasing doses of GD3. […]

CCCCCCCCCC(=O)N[C@H](CN1CCOCC1)[C@H](O)c1ccccc1 [D-PDMP, D-threo-1-phenyl-2-decanoylamino-3-morpholino-1-propanol]
reduction in the lesion caused by stroke compared with untreated ischemic animals (focal cerebral ischemia): 90% | increase in GD3 on the ischemic side compared with the non-ischemic side [1]: 10%

GD3 synthase antisense oligodeoxynucleotides: antisense oligodeoxynucleotides against GD3 synthase (SEQ ID NO:2) (antisense CAGTACAGCCATGGCCCCTCT; DNA, backbone and methylation of C not given here)
mortality, % of the level in cultures treated with randomly arranged sequence (primary neurons [2]): 50% | accumulation of GD3, % of controls (GD3 synthase): 55%

II^3(NeuAc-α-2,8-NeuAc)LacCer [GD3]
specific neuronal death (primary neurons [3]): up to 80%
